Entries after “also recorded” stand apart in the source; their conditions may differ. Where two headings read alike, the source gives them in different places.
What was measured:
[1] = system: panel of 79 commonly studied protein kinases, including several PKC isozymes; details: in words; cited from earlier work
GSK-3 = details: cited from earlier work
human GSK-3 = details: cited from earlier work
[2] = system: inositol monophosphatases; details: in words; cited from earlier work
[3] = system: AR transcriptional activity; assay: AR transcriptional activity, MMTV-Luciferase reporter in CWR-R1 cells; type: cell-based
22Rv1 cells = assay: cell growth assay, 22Rv1 cells; type: cell-based
[4] = system: β-catenin/Tcf transcriptional activity; assay: β-catenin/Tcf transcriptional activity, pOT-Luciferase reporter in CWR-R1 cells; type: cell-based; details: 20 μM SB415286 or 5 μM SB216763, 24 h, normal growth medium
CWR-R1 cells = assay: cell growth assay, CWR-R1 cells; type: cell-based; details: for CWR-R1 cell growth (number of cells): 5 μM SB216763 or 20 μM SB415286, up to 6 days
Procedure: (a) CWR-R1 cells were grown in the presence of carrier (ut). […] The experiment was done twice in triplicate and the error bars indicate standard deviation. […] The experiment was done in triplicate and the error bars indicate standard deviation. […] The number of cells was counted after 72 h (or after 5 days for LNCaP cells). Experiments were done in triplicate and the error bars indicate standard deviation. […] Cell growth assays were conducted according to Gregory et al, (2001). Briefly, cells (1.5×10^5/well) were plated in 12-well plates (three wells were used for each condition) and allowed to attach overnight. […] Cells were collected by trypsinisation at the indicated times and were counted using a Coulter Counter or using a haemocytometer.

LNCaP cells = assay: cell growth assay, LNCaP cells; type: cell-based; details: 5 μM SB216763, hormone-depleted medium with 1 nM R1881, 5 days
Procedure: (§1) The number of cells was counted after 72 h (or after 5 days for LNCaP cells). Experiments were done in triplicate and the error bars indicate standard deviation. […] Cell growth assays were conducted according to Gregory et al, (2001). Briefly, cells (1.5×10^5/well) were plated in 12-well plates (three wells were used for each condition) and allowed to attach overnight. […] Cells were collected by trypsinisation at the indicated times and were counted using a Coulter Counter or using a haemocytometer.

DU145 cells = assay: cell growth assay, DU145 cells; type: cell-based; details: 5 μM SB216763, normal growth medium, 72 h
Procedure: as §1

PC3 cells = assay: cell growth assay, PC3 cells; type: cell-based; details: 5 μM SB216763, normal growth medium, 72 h
Procedure: as §1

AR protein = AR protein level by western blotting in CWR-R1 cells; type: cell-based; details: 5 μM SB216763 or 20 μM SB415286, 24 h, western blot
Procedure: FIG. 6: Inhibition of GSK-3 leads to a reduction in AR protein levels. […] Western blots of whole cell extracts were probed for AR (upper panels) and reprobed for γ-tubulin as an internal loading control (lower panels).
Cells were grown to 50-70% confluence in 100 mm dishes or 6-well plates. Lysates were obtained using the following steps: Cells were rinsed in cold TBS, lysed in modified RIP A buffer (0.5% deoxycholate, 1% Triton X-100, 20 mM Tris pH 8.0, 0.1% SDS, 100 mM NaCl, 50 mM NaF) or Nonidet P-40 buffer (1% NP-40, 20 mM Tris pH 8.0, 150 mM NaCl, 50 mM NaF) for 10 min and centrifuged for 12 min at 15,000×g. Cell extracts were then mixed with an equal volume of SDS sample buffer (Sigma Aldrich) and heated to 95° C. for 3 min. For immunoprecipitation (IP) assays in transfected COS7 cells, cell extracts were prepared using NP-40 lysis buffer, incubated with primary antibody for 1 h on ice. This was followed by 30 min incubation with 20 μl protein A/G-agarose (Cambridge Biosciences) on a rotating wheel in the cold room. After 4 washes in lysis buffer and 1 wash in TBS, the beads were resuspended in 10 μl of SDS sample buffer and heated as above. […]

[5] = CWR-R1 cells, 10 nM R1881, 20 μM SB415286 or 5 μM SB216763, 24 h

## O=C1NC(=O)C(c2cn(CCCO)c3ncccc23)=C1c1cnccn1 [3-(1-(3-Hydroxypropyl)-1H-pyrrolo[2,3-b]pyridin-3-yl]-4-pyrazin-2-yl-pyrrole-2,5-dione]
[1]
  inhibition of the kinase panel: minimally inhibits

## Cc1cc(Nc2nc(-c3ccccc3)nc3ccccc23)n[nH]1 [5-Methyl-1H-pyrazol-3-yl)-(2-phenylquinazolin-4-yl)amine]
GSK-3; ATP-binding site inhibitor
  Ki: 24 nM

## [Cl-].[Li+] [Lithium chloride, lithium chloride]
GSK-3; in words
  IC50 value: high
[2]
  inhibition of inositol monophosphatases relative to GSK-3: to a similar extent

## C[C@]1(O)CC[C@H]2[C@@H]3CCC4=CC(=O)CCC4=C3C=C[C@@]21C [R1881, methyltrienolone]
[3]
  AR transcriptional activity: increase
22Rv1 cells; hormone-depleted medium, 10^−12 M or 10^−9 M R1881, 72 h
  growth of 22Rv1 cells: stimulated

## Cn1cc(C2=C(c3ccc(Cl)cc3Cl)C(=O)NC2=O)c2ccccc21 [SB216763]
[4]
  β-catenin/Tcf-dependent transcriptional activity: increased
[3]; [5]
  AR transcriptional activity: reduced
CWR-R1 cells; 5 μM SB216763, normal growth medium, 72 h
  growth of CWR-R1 cells (number of cells): significantly reduced
CWR-R1 cells
  CWR-R1 cell growth (number of cells): repressed
CWR-R1 cells; CWR-R1 cells, 72 h, complete growth medium
  concentration at which inhibitory effects on cell growth were maximal (optimal dose): 3 µM
22Rv1 cells; 5 μM SB216763, hormone-depleted medium with 1 nM R1881, 72 h
  growth of 22Rv1 cells (number of cells): significantly reduced
22Rv1 cells; 5 μM SB216763, hormone-depleted medium with R1881, 72 h
  R1881-stimulated growth of 22Rv1 cells: blocked
22Rv1 cells; 5 μM SB216763, hormone-depleted medium, absence of hormone, 72 h
  hormone-independent proliferation of 22Rv1 cells: inhibited
LNCaP cells
  growth of LNCaP cells (number of cells): significantly reduced; also recorded: weakly inhibited
DU145 cells
  DU145 cell growth (number of cells): did not significantly affect
PC3 cells
  PC3 cell growth (number of cells): did not significantly affect
AR protein
  protein level of AR: reduced

## O=C1NC(=O)C(c2ccccc2[N+](=O)[O-])=C1Nc1ccc(O)c(Cl)c1 [SB415286]
[3]; [5]
  AR transcriptional activity: reduced
CWR-R1 cells
  CWR-R1 cell growth (number of cells): repressed
CWR-R1 cells; up to 50 μM, data not shown
  dose dependence of inhibitory effects on CWR-R1 cell growth: increased with dose up to the maximal dose tested
AR protein
  protein level of AR: reduced

## CHIR 98014
Human GSK-3
  Ki: 0.87 nM

Source: patent US20090304663A1, “USE OF GSK-3 INHIBITORS FOR THE TREATMENT OF PROSTATE CANCER” (IMPERIAL INNOVATIONS LIMITED, priority 2004, published 2009)
